{"source": "patent US20130190278A1", "about": "“Compounds for the Treatment/Prevention of Ocular Inflammatory Diseases” (Laboratoires Fournier SA, priority 2010, published 2013)", "system": "dry eye induced by scopolamine and extractor hood", "experiment": "Dry eye model (scopolamine + desiccation), tear production by Phenol Red test (PRTT)", "assay_type": "in vivo, mice", "conditions": "instillations of 0.1% twice a day", "description": "Dry eye is induced in mice by the combination of scopolamine, which blocks the muscarinic cholinergic receptors of lacrimal glands, and by placing the mice in an extractor hood that reduces humidity and increases air flow. The production and volume of aqueous tears, tear clearance, and the corneal barrier function are evaluated before treatment, and then twice a week after treatment. The results are compared between groups of untreated control mice, and groups of mice placed in the extractor hood, treated with the anticholinergic agent scopolamine, treated or not with tresperimus.\nMale 129SV/CD-1 mice were used in this study and received three sub-cutaneous injections of 200 μl of scopolamine at 2.5 mg/mL in saline for 21 days. The mice were placed in an extractor hood (humidity <50%) during the whole experiment.\nTear production (PRTT) was measured with cotton threads impregnated with Phenol Red (Zone-quick; Menicon, Japan) applied to the ocular surface in the lateral canthus for 60 seconds. Wetting of the thread was measured in millimeters, using the scale on the cotton thread.", "data": [{"smiles": "C[C@@H]1C[C@H]2[C@@H]3CCC4=CC(=O)C=C[C@]4(C)[C@@]3(F)[C@@H](O)C[C@]2(C)[C@@]1(O)C(=O)CO", "note": "[dexamethasone]", "values": [{"measurement": "Tear volume (Phenol Red test)", "result": "no significant effect"}]}]}
